Measured values: patent publication US10392368B2, “Pyrazolo and triazolo bicyclic compounds as JAK kinase inhibitors” (THERAVANCE BIOPHARMA R&D IP, LLC, priority 2017, dated 2019)
Where two headings read alike, the source gives them in different places.

Legend:
[1] = biological target: T1, JAK1 (Homo sapiens, UniProt P23458); experiment: Biochemical JAK1 kinase assay (LanthaScreen); conditions: for Ki: read-out: JAK 1 (pKi) (converted)
T1 construct: GST; purchased Life Technologies
Outline: (§1)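 Compounds were preincubated with the GST-tagged kinase and GFP-labelled STAT1 peptide for one hour before ATP initiated a one-hour reaction at ambient temperature. Phosphorylation was quantified by TR-FRET with a Tb-labelled pTyr701 antibody. Ki values were derived from IC50 using Cheng-Prusoff.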

[2] = biological target: T2, JAK2 (Homo sapiens, UniProt O60674); experiment: Biochemical JAK2 kinase assay (LanthaScreen); conditions: for Ki: read-out: JAK 2 (pKi) (converted)
T2 construct: GST; purchased Life Technologies
Outline: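 GST-tagged recombinant JAK2 pre-incubated 1 h at ambient temperature with compound and GFP-STAT1 peptide in HEPES pH 7.5/MgCl2 buffer, then ATP added for a 1 h reaction with 1% DMSO. TR-FRET read after EDTA and Tb-anti-pSTAT1 (pTyr701) addition; IC50 from 4-parameter fit, converted to pKi by Cheng-Prusoff.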

[3] = biological target: T3, Tyk2 (Homo sapiens, UniProt P29597); experiment: Biochemical Tyk2 kinase assay (LanthaScreen); conditions: for Ki: read-out: Tyk 2 (pKi) (converted)
T3 construct: GST; purchased Life Technologies
Outline: as §1

[4] = test system: IL-2 stimulated pSTAT5 in Tall-1 T cells; experiment: Cellular JAK3 potency assay: inhibition of IL-2 stimulated pSTAT5 in Tall-1 T cells; assay type: cell-based, human; conditions: for IC50: Homo sapiens, read-out: Tall-1 (pIC50) (converted)
Outline: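 In human Tall-1 T cells, IL-2 (300 ng/ml final, 30 min) drives STAT5 phosphorylation after a 1 h compound pretreatment. Lysates are assayed for pSTAT5 by AlphaLisa, and IC50 derived from signal versus concentration is expressed as pIC50.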

[5] = biological target: T4, JAK3 (Homo sapiens, UniProt P52333); experiment: Biochemical JAK3 kinase assay (LanthaScreen); parameters: GST; purchased Life Technologies; conditions: for Ki: read-out: JAK 3 (pKi) (converted)
T4 sequence (P52333 1-1124): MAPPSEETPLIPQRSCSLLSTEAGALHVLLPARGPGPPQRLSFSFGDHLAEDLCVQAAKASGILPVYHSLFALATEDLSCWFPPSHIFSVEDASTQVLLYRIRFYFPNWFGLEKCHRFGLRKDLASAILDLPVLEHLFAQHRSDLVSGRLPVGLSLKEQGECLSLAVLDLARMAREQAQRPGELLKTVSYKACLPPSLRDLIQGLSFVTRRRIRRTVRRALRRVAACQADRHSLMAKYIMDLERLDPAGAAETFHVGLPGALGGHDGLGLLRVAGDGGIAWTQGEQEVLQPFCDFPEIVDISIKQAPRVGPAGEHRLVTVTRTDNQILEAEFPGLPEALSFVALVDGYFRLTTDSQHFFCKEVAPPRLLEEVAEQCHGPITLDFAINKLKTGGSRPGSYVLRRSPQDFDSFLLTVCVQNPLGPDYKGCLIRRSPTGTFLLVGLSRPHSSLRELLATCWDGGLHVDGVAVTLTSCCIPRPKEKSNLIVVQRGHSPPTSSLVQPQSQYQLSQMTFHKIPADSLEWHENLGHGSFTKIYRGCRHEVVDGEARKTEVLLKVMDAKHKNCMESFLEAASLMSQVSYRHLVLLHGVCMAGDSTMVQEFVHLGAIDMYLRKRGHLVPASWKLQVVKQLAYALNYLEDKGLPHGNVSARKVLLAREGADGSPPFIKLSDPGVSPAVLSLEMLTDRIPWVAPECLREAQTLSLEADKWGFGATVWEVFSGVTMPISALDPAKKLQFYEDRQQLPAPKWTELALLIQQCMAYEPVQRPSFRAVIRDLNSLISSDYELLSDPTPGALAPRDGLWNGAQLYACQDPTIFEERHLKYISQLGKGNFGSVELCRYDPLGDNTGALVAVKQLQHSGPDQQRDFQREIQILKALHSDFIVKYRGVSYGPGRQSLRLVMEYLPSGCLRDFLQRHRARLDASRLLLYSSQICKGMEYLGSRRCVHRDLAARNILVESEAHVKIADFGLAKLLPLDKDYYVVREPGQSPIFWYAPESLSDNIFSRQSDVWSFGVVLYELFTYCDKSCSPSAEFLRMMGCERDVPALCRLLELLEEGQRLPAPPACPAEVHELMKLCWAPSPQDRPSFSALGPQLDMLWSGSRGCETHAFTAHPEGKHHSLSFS
Outline: as §1

[6] = IL-2 stimulated pSTAT5, Tall-1 T cells
[7] = selectivity JAK3 over JAK1, difference of pKi
[8] = TALL-1, IL-2 stimulated pSTAT5, Tall-1 T cells
[9] = TALL-1, IL-2 stimulated pSTAT5 in Tall-1 T cells
[10] = selectivity: difference of pKi JAK3 and pKi JAK1

T2 sequence (O60674 whole entry): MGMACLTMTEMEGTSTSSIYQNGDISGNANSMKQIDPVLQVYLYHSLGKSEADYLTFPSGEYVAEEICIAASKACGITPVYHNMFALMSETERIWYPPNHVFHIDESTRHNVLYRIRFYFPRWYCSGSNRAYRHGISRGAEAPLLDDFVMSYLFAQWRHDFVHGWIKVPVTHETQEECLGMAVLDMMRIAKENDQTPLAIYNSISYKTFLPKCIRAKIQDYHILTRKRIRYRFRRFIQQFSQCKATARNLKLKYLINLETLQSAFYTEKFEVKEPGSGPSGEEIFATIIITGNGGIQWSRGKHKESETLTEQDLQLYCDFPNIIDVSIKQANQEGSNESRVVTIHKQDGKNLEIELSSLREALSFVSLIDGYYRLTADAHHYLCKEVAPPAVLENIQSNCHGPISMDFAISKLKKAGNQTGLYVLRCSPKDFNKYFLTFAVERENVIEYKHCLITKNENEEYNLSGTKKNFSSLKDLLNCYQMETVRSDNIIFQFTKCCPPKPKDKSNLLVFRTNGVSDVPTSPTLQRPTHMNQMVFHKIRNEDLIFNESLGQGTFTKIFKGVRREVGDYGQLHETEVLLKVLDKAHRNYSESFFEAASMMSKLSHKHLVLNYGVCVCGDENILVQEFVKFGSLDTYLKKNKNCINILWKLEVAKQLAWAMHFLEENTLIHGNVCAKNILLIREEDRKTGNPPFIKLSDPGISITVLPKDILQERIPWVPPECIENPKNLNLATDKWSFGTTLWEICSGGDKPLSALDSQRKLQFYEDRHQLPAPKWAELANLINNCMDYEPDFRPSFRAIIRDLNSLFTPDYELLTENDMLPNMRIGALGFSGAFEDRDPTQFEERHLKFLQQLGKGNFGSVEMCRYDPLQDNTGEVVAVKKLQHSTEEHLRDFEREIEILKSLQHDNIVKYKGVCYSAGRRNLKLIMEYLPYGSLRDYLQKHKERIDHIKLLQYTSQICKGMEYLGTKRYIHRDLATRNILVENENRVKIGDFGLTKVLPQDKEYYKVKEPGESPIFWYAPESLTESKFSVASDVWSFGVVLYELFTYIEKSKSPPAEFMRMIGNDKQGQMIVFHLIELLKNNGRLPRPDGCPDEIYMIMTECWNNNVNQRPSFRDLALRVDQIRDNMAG
T3 sequence (P29597 whole entry): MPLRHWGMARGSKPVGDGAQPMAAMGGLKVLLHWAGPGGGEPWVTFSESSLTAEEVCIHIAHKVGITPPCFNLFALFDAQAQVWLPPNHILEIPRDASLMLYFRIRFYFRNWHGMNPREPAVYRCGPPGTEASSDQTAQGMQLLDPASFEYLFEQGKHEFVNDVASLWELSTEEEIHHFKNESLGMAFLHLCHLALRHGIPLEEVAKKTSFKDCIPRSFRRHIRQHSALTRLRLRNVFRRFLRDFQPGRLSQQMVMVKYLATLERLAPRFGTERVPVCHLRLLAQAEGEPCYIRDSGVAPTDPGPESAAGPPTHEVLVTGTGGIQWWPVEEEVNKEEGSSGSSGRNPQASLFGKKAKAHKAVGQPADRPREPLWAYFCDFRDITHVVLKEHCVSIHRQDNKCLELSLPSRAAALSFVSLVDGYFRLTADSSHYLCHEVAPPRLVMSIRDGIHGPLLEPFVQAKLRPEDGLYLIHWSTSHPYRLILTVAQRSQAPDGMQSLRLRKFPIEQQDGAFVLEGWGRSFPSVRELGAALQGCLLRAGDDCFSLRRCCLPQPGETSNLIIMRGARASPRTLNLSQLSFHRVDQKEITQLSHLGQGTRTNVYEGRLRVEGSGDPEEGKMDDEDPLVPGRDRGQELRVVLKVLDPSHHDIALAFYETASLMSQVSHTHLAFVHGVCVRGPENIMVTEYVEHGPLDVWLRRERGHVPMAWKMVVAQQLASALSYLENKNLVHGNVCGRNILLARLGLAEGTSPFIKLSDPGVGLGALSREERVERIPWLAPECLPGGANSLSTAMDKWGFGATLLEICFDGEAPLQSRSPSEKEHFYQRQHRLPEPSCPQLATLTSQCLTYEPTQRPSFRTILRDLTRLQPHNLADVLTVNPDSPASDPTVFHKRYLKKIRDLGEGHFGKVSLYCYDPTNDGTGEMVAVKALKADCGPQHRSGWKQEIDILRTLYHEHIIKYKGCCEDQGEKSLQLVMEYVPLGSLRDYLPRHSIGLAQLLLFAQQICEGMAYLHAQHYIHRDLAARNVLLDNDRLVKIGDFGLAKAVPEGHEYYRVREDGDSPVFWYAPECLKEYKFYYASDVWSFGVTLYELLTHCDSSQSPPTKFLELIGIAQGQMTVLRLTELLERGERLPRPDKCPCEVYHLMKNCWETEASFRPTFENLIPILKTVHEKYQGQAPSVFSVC
T1 sequence (P23458 whole entry): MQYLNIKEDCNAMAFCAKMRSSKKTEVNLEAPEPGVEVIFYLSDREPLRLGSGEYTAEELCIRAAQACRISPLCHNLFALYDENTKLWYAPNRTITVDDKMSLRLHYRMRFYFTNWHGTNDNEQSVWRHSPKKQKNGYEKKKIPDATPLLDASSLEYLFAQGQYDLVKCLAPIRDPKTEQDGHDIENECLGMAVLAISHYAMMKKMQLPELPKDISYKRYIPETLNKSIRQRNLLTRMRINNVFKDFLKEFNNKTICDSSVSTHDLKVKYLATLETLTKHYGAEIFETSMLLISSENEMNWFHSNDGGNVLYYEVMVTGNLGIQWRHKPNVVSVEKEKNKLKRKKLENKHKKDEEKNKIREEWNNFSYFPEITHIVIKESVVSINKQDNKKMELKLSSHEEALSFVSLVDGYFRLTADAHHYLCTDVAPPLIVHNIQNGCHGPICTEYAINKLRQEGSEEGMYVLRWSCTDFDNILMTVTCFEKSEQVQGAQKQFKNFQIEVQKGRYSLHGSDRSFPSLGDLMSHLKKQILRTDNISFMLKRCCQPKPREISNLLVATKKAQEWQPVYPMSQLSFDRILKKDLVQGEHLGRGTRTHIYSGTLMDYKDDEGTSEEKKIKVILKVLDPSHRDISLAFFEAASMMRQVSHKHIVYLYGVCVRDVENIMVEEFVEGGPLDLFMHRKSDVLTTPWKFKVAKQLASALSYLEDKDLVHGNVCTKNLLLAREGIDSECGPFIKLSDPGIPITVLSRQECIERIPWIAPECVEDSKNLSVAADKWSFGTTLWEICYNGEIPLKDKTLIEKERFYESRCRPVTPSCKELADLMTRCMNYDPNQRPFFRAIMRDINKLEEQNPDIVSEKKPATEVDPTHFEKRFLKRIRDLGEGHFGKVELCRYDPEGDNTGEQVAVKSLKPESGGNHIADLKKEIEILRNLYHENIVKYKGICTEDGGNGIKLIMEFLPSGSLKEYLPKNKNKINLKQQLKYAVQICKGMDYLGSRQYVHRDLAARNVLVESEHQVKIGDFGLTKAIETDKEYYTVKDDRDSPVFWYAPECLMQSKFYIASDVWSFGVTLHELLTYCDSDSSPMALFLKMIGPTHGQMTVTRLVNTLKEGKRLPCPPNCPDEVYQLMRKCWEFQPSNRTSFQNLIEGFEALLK

SMILES	JAK 1 (pKi) [1]	JAK 2 (pKi) [2]	Tyk 2 (pKi) [3]	Tall-1 (pIC50) [4, 6]	JAK 3 (pKi) [5]	JAK3 (pKi)-JAK1 (pKi) [5, 7]	Ki [1] [nM]	Ki [2] [nM]	Ki [3] [nM]	IC50 [4, 8] [nM]	Ki [5] [nM]	IC50 [4, 9] [nM]	JAK3 (pKi)-JAK1 (pKi) [5, 10]	Tall-1 (pIC50) ([4]; IL-2 stimulated pSTAT5 in Tall-1 T cells)
C=CC(=O)N1CC(OCc2nc(-c3ccc(O)cc3)cc3[nH]ncc23)C1 [Compound 16-5]	E (a pKi value of 7 or below (Ki of 100 nM or above))	E (a pKi value of 7 or below (Ki of 100 nM or above))	E (a pKi value of 7 or below (Ki of 100 nM or above))	A (a pIC50 value≥7.5 (IC50≤32 nM))	A (a pKi value≥10 (Ki≤0.1 nM))	A (a value of 3 or above)	–	–	–	–	–	–	–	–
C=CC(=O)N1CC[C@@H](Nc2cc(-c3ccc(O)cc3)cc3[nH]ncc23)[C@H](C)C1 [Compound 12-17]	–	–	–	–	–	B (a value of 2.3 to 3)	10 to 100	1 to 10	> 100	< 31.6	< 0.1	–	–	–
C=CC(=O)N1CC2(CC(Oc3nc(-c4ccc(O)c(Cl)c4)nc4[nH]ncc34)C2)C1 [Compound 15-9]	E (a pKi value of 7 or below (Ki of 100 nM or above))	E (a pKi value of 7 or below (Ki of 100 nM or above))	E (a pKi value of 7 or below (Ki of 100 nM or above))	B (a pIC50 value between 6.7 (included) and 7.5 (IC50 between 200 nM and 32 nM))	A (a pKi value≥10 (Ki≤0.1 nM))	A (a value of 3 or above)	–	–	–	–	–	–	–	–
C=CC(=O)N1CC(C(=O)Nc2cc(-c3ccc(O)cc3)cc3[nH]ncc23)C1 [Compound 12-46]	–	–	–	–	–	A (a value of 3 or above)	> 100	10 to 100	> 100	31.6 to 200	< 0.1	–	–	–
COC1CCCN(C/C=C/C(=O)N2CC(COc3cc(-c4ccc(O)cc4)cc4[nH]ncc34)C2)C1 (stereo not drawn) [Compound 3-128]	–	–	–	–	–	–	> 100	0.1 to 1	> 100	–	< 0.1	31.6 to 200	A (a value of 3 or above)	–
C=CC(=O)N1CC(C)(Oc2cc(-c3ccc(O)c(Cl)c3)cc3[nH]ncc23)C1 [Compound 5-23]	E (a pKi value of 7 or below (Ki of 100 nM or above))	E (a pKi value of 7 or below (Ki of 100 nM or above))	E (a pKi value of 7 or below (Ki of 100 nM or above))	B (a pIC50 value between 6.7 (included) and 7.5 (IC50 between 200 nM and 32 nM))	B (a pKi value between 9 and 10 (Ki between 1 nM and 0.1 nM))	A (a value of 3 or above)	–	–	–	–	–	–	–	–
CCC1(COc2cc(-c3ccc(O)c(Cl)c3)cc3[nH]ncc23)CN(C(=O)/C=C/CN(C)C)C1 [Compound 3-15]	–	–	–	–	–	–	> 100	> 100	> 100	–	< 0.1	31.6 to 200	A (a value of 3 or above)	–
C=CC(=O)N1CC[C@H](Oc2cc(-c3ccc(O)cc3)cc3[nH]nc(C#N)c23)C1 [Compound 1-45]	–	–	–	–	–	–	> 100	> 100	> 100	–	< 0.1	< 31.6	A (a value of 3 or above)	–
CN(C)C/C=C/C(=O)N1CC(F)(COc2nc(-c3ccc(O)cc3)cc3[nH]ncc23)C1 [Compound 3-44]	D (a pKi value between 7 and 8 (Ki between 100 nM and 10 nM))	D (a pKi value between 7 and 8 (Ki between 100 nM and 10 nM))	E (a pKi value of 7 or below (Ki of 100 nM or above))	–	B (a pKi value between 9 and 10 (Ki between 1 nM and 0.1 nM))	–	–	–	–	–	–	–	B (a value of 2.3 to 3)	A (a pIC50 value≥7.5 (IC50≤32 nM))
CN(C)C/C=C/C(=O)N1CC(S(=O)(=O)c2cc(-c3ccc(O)cc3)cc3[nH]ncc23)C1 [Compound 12-49]	–	–	–	–	–	A (a value of 3 or above)	> 100	> 100	> 100	200 to 1000	0.1 to 1	–	–	–
C=CC(=O)N1CCSCC1C(=O)Nc1cc(-c2ccc(O)cc2)cc2[nH]ncc12 (stereo not drawn) [Compound 12-66]	–	–	–	–	–	A (a value of 3 or above)	> 100	> 100	> 100	31.6 to 200	0.1 to 1	–	–	–
C=CC(=O)N1CCO[C@@H](C(=O)Nc2cc(-c3ccc(O)cc3)nc3[nH]ncc23)C1 [Compound 13-19]	E (a pKi value of 7 or below (Ki of 100 nM or above))	E (a pKi value of 7 or below (Ki of 100 nM or above))	E (a pKi value of 7 or below (Ki of 100 nM or above))	B (a pIC50 value between 6.7 (included) and 7.5 (IC50 between 200 nM and 32 nM))	A (a pKi value≥10 (Ki≤0.1 nM))	A (a value of 3 or above)	–	–	–	–	–	–	–	–
Cc1n[nH]c2cc(-c3ccc(O)c(Cl)c3)cc(OCC3CN(C(=O)/C=C/CN(C)C)C3)c12 [Compound 18-1]	–	–	–	–	–	B (a value of 2.3 to 3)	> 100	10 to 100	> 100	< 31.6	0.1 to 1	–	–	–
C=CC(=O)N1CC(COc2cc(-c3ccc(O)c(Cl)c3)nc3[nH]ncc23)C1 [Compound 3-86]	–	–	–	–	–	–	> 100	> 100	> 100	–	< 0.1	31.6 to 200	A (a value of 3 or above)	–
C=CC(=O)N1CC2(CCC2Oc2nc(-c3ccc(O)cc3)nc3[nH]ncc23)C1 (stereo not drawn) [Compound 13-16]	E (a pKi value of 7 or below (Ki of 100 nM or above))	E (a pKi value of 7 or below (Ki of 100 nM or above))	E (a pKi value of 7 or below (Ki of 100 nM or above))	B (a pIC50 value between 6.7 (included) and 7.5 (IC50 between 200 nM and 32 nM))	B (a pKi value between 9 and 10 (Ki between 1 nM and 0.1 nM))	A (a value of 3 or above)	–	–	–	–	–	–	–	–
